Measured values as given in patent publication US6277886A (priority 1996, dated 2001).
Where a name gives a salt, the structure may show the parent alone. Read-outs that look alike come from different tables or passages of the source.

Legend:
ICR male mice = assay: Hypobaric hypoxia model, survival time of mice at 200 mmHg; type: in vivo; conditions: control = 100
Excerpt: The model used is analogous to the one described by M. Nakanishi et al., Life Sci. 13: 467-476 (1973); and by Y'Oshiro et al., J. Med. Chem. 34: 2014-2023 (1991). A group of 4 ICR male mice each weighing 20-25 g were placed in a 2.5 L glass chamber (A) at atmospheric pressure. Chamber A is connected to a 12 L chamber (B) through a valve which is initially […] closed. The air in chamber B was evacuated to a pressure of 100 mmHg. The valve between the two chambers was opened rapidly, whereupon the pressure in chamber A fell within 14 seconds to 200 mmHg. The survival time of the mice in chamber A was determined to a maximum hypobaric exposure of 15 minutes. Effect of drug pretreatment on survival is calculated as the percent of the survivai time of the drug-treated group as compared to saline-injected or vehicle-injected group. Control groups were tested twice, before and after each experiment and consisted of 12 to 16 mice, 4 per group. Each tested group always consisted of 4 mice in order to ensure a constant residual volume of oxygen in all tests. […] The effect of each dose of the test drug was determined in duplicate, using a total of 8 mice, 4 per group. All drugs were administered i.p. one hour prior to hypoxia. Positive reference drugs were sodium pentobarbital at a dose of 40 mg/kg, or diazepam at a dose of 10 mg.kg, given 0.5 hour prior to hypoxia.

MAO-A = MAO-A (Rattus norvegicus, UniProt P21396); assay: in vivo; conditions: for ED50: rat, read-out: IC-50 for Inhibition of MAO-A
MAO-A, sequence (P21396 whole entry): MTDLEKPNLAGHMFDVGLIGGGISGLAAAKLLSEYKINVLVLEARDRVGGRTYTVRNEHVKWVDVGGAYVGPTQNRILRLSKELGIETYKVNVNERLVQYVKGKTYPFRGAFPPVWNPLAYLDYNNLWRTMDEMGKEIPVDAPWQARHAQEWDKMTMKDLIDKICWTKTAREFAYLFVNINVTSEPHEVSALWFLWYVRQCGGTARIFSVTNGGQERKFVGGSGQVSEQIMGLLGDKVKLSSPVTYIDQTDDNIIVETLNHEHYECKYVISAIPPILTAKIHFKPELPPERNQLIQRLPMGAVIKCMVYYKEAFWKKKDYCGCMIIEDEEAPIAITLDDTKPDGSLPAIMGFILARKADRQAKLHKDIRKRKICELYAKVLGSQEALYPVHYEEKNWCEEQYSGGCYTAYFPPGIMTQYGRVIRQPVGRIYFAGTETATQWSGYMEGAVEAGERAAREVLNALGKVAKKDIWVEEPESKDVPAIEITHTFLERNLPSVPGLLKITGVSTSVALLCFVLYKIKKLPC
Description: (§1) Rats (male Sprague-Dawley-derived) weighing 250±20 g were treated with one of the enantionmers or the racemic form of PAI by intraperitoneal injection (ip) or oral gavage (po), and decapitated 1h or 2h later respectively. Groups of three rates were used for each dose level of substance, and MAO activity determined in brain and liver using the general technique described in Example 19 of U.S. Pat. No. 5,387,612. The amount of protein in each incubation was determined using the Follin-Lowrymethod, and enzyme activity calculated as nmol of substrate metabolized per hour of incubation for each mg of protein. Activity of MAO in tissues from animals treated with the enantiomers or the racemic form of PAI was expressed as a percentage of the enzyme activity in a group of control animals administered vehicle (water for oral administration, 0.9% saline for ip injection).

MAO-B [1] = target: MAO-B (Rattus norvegicus, UniProt P19643); assay: in vivo; conditions: for activity for inhibition of MAO-B: in words; for ED50: rat
MAO-B (Rattus norvegicus, UniProt P19643), sequence (P19643 whole entry): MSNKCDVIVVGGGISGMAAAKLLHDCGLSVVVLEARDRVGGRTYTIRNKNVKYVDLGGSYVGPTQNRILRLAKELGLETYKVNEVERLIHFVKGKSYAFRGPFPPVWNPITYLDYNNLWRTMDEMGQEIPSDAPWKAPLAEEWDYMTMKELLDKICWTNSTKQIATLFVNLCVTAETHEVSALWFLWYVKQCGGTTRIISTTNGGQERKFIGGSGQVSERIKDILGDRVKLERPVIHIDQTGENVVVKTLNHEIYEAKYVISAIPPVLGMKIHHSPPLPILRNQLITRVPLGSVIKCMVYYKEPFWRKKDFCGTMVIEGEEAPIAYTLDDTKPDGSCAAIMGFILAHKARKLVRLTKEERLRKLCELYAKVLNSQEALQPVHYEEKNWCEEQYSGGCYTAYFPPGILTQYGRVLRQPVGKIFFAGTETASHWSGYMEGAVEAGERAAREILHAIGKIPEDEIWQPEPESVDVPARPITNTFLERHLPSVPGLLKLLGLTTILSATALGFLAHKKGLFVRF
Description: as §1

[2] = tested on: male Wistar rats after middle cerebral artery occlusion (MCA-O)
Excerpt: In order to expose the left middle cerebral artery, a cut was made in the temporal muscle. The tip of the coronoid process of mandible was excised as well and removed with a fine rongeur. Craniectomy was made with a dental drill at the junction between the median wall and the roof of the inferotemporal fossa.
The dura matter was opened carefully using a 27 gauge needle. […] Following this, the temporalis muscle was sutured and laid over the craniectomy site. The skin was closed with a running 3-0 silk suture. […] The volume of brain tissue incurring damage following ischemia was determined.

MAO-B [3] = conditions: in vitro; cited from earlier work
MAO-A/MAO-B = conditions: in vitro; cited from earlier work
rat cerebellum cells = conditions: in words; cited from earlier work
rat optic nerve = conditions: in words; cited from earlier work
[4] = tested on: reserpine induced ptosis in rats; assay: Reserpine-induced ptosis in rats; type: in vivo; conditions: reserpine 5 mg/kg i.p., 0-4 scale, 4 = eyes completely open, saline 0.86
Excerpt: Reserpine-induced ptosis and its reversal test. Reserpine causes depletion of catecholamine stores, especially norepinephrine. This effect in the live animal is manifested among other things, in ptosis. Drugs that can prevent or inhibit reserpine-induced ptosis act either directly as noradrenergic agonists, or indirectly by decreasing or preventing the metabolic elimination of endogenous norepinephrine. MAO inhibitors belong to the latter category.

nerve cell death = conditions: sub-inhibitory levels; in words; cited from earlier work
[5] = tested on: noradrenaline depletion in rodents; conditions: in words; cited from earlier work
human subjects = conditions: cited from earlier work
noradrenaline uptake = conditions: in words; cited from earlier work
[6] = tested on: pressor response to catecholamines in the cat; assay: Pressor response to catecholamines in the anesthetized cat before and after S(-)PAI; type: in vivo; conditions: before S(-)PAI
Description: Cats were anesthetized with i.v. nembutal 25 mg/kg. Anesthesia was maintained by additional injections of nembutal, 5 mg/kg, as needed. The femoral artery was cannulated and connected to a Statham pressure transducer for blood pressure recordings on a Grass multichannel Polygraph. The femoral vein was cannulated for i.v. injection of drugs.

[7] = po liver, 2 h after oral gavage
[8] = 10 mg/kg i.p., one hour prior to hypoxia
[9] = 50 mg/kg i.p., one hour prior to hypoxia
[10] = 100 mg/kg i.p., one hour prior to hypoxia

SMILES: CN1C(=O)CN=C(c2ccccc2)c2cc(Cl)ccc21 [Diazepam]
- % protection ± SD relative to control (relative survival time) (ICR male mice; 10 mg/kg i.p., 0.5 hour prior to hypoxia): 430 ± 59%

SMILES: CCCC(C)C1(CC)C(=O)NC(=O)NC1=O (stereo not shown) [Pentobarbital]
- % protection ± SD relative to control (relative survival time) (ICR male mice; 20 mg/kg i.p., 0.5 hour prior to hypoxia): 325 ± 166%

SMILES: C#CCN[C@@H]1CCc2ccccc21 [R(+)PAI mesylate, reference compound]
- IC-50 for Inhibition of MAO-A (MAO-A; [7]): > 5 mg/kg
- ED50 (MAO-A; po, 2 h): > 5 mg/kg
- activity for inhibition of MAO-B (MAO-B [1]): selectivity
- % protection ± SD relative to control (relative survival time) (ICR male mice; [8]): 116 ± 47%
- % protection ± SD relative to control (relative survival time) (ICR male mice; [9]): 410 ± 151%
- % protection ± SD relative to control (relative survival time) (ICR male mice; [10]): 358 ± 179%

SMILES: C#CCN[C@@H]1CCc2ccccc21 [R(+)PAI, R(+) enantiomer of N-propargyl-1-aminoindan]
- improvement in neurological score severity [2]: ~20%
- activity as inhibitor of MAO-B relative to S(-)PAI (MAO-B [3]): ~7,000 times more active
- selectivity for MAO-B than MAO-A (MAO-A/MAO-B): more than 29 times more selective
- prevention of NMDA induced cell death (rat cerebellum cells): active as a "neuroprotective agent"
- slowing neuronal degeneration after crushing the rat optic nerve (rat optic nerve): slowing neuronal degeneration

SMILES: C#CCN(C)[C@H](C)Cc1ccccc1 [R(-)Deprenyl]
- Mean score of reserpine-induced ptosis ([4]; 5 mg/kg i.p.): 1.3
- Mean score of reserpine-induced ptosis ([4]; 10 mg/kg i.p.): 3.16
- prevention of nerve cell death (nerve cell death): prevent nerve cell death
- neuroprotective activity (percent restoration of noradrenaline after DSP-4) [5]: displayed "neuroprotective activity"
- dose at which cardiovascular function could be compromised (human subjects; human subjects, daily dose, recommended dose 10 mg): 30 to 40 mg
- safety factor in clinical practice (human subjects; human): 3 to 4

SMILES: C#CCN(C)[C@@H](C)Cc1ccccc1 [S(+) deprenyl]
- neuroprotective activity (percent restoration of noradrenaline after DSP-4) [5]: far lower "neuroprotective activity" in comparison with R(-) deprenyl
- noradrenaline uptake inhibition compared to R(-) deprenyl (noradrenaline uptake): superior noradrenaline uptake inhibitor as compared to R(-) deprenyl

SMILES: C#CCN[C@H]1CCc2ccccc21 [S(-)PAI mesylate, S-(-)-N-Propargyl-1-aminoindan mesylate]
- activity for inhibition of MAO-A (MAO-A; in words): extremely low activity
- IC-50 for Inhibition of MAO-A (MAO-A; ip liver, 1 h after ip injection): > 10 mg/kg
- IC-50 for Inhibition of MAO-A (MAO-A; [7]): > 10 mg/kg
- ED50 (MAO-A; ip, 1 h): > 10 mg/kg
- ED50 (MAO-A; po, 2 h): > 10 mg/kg
- activity for inhibition of MAO-B (MAO-B [1]): extremely low activity
- ED50 (MAO-B [1]; ip, 1 h, read-out: IC-50 for Inhibition of MAO-B, ip brain, 1 h after ip injection): > 10 mg/kg
- ED50 (MAO-B [1]; ip, 1 h, read-out: IC-50 for Inhibition of MAO-B, ip liver, 1 h after ip injection): > 10 mg/kg
- ED50 (MAO-B [1]; po, 2 h, read-out: IC-50 for Inhibition of MAO-B, po brain, 2 h after oral gavage): > 10 mg/kg
- ED50 (MAO-B [1]; po, 2 h, read-out: IC-50 for Inhibition of MAO-B, po liver, 2 h after oral gavage): > 10 mg/kg
- % protection ± SD relative to control (relative survival time) (ICR male mice; [8]): 84 ± 47%
- % protection ± SD relative to control (relative survival time) (ICR male mice; [9]): 406 ± 247%
- % protection ± SD relative to control (relative survival time) (ICR male mice; [10]): 390 ± 197%

SMILES: NC[C@H](O)c1ccc(O)c(O)c1 [norepinephrine, reference compound]
- Δ mean arterial pressure before S(-)PAI ([6]; 0.02 μg/kg i.v.): 8 mmHg
- Δ mean arterial pressure before S(-)PAI ([6]; 0.05 μg/kg i.v.): 23 mmHg
- Δ mean arterial pressure before S(-)PAI ([6]; 0.10 μg/kg i.v.): 31 mmHg
- Δ mean arterial pressure before S(-)PAI ([6]; 0.20 μg/kg i.v.): 46 mmHg

SMILES: CNC[C@H](O)c1cccc(O)c1 [phenylephrine, reference compound]
- Δ mean arterial pressure before S(-)PAI ([6]; 0.20 μg/kg i.v.): 9 mmHg
- Δ mean arterial pressure before S(-)PAI ([6]; 0.50 μg/kg i.v.): 17 mmHg
- Δ mean arterial pressure before S(-)PAI ([6]; 1.0 μg/kg i.v.): 21 mmHg
- Δ mean arterial pressure before S(-)PAI ([6]; 2.0 μg/kg i.v.): 40 mmHg

SMILES: NCCc1ccc(O)cc1 [tyramine, reference compound]
- Δ mean arterial pressure before S(-)PAI ([6]; 2.0 μg/kg i.v.): 11 mmHg
- Δ mean arterial pressure before S(-)PAI ([6]; 5.0 μg/kg i.v.): 19 mmHg
- Δ mean arterial pressure before S(-)PAI ([6]; 10.0 μg/kg i.v.): 26 mmHg
- Δ mean arterial pressure before S(-)PAI ([6]; 20.0 μg/kg i.v.): 42 mmHg
